From ChEMBL document CHEMBL1201862, “PubChem BioAssay data set” (2004) come the findings set out here.

Some test systems named below: SF-295; OVCAR-8; UACC-257; HT-29; OVCAR-4; SNB-75; SW-620; HOP-92; MOLT-4; HOP-62; SK-OV-3; NCI-H460; RPMI-8226; COLO 205; SK-MEL-28; HCT-116; T47D; DU-145; MDA-MB-435; Hs-578T.
Common to all, as to assay: DTP human tumour cell line panel, 48 h

As a reminder, the GI50 is the concentration giving 50% growth inhibition.

SMILES strings stand for the structures.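 Cells were grown in 96-well plates and exposed to each compound for 48 hours at five concentrations; endpoints were interpolated linearly between bracketing concentrations, or set to the highest concentration if not reached. The concentration for 50% growth inhibition is given as GI50.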 Active and inactive are the calls of the source. Rule as the data show it: active = GI50 up to about 1.1 µM and inactive = higher.

In the case of `COc1ccc(-c2oc3c(OC)c(OC)c(OC)c(O)c3c(=O)c2OC)cc1O`, the concentration for 50% growth inhibition (GI50) in the experiment on SF-295 is 0.478 µM (active); in the experiment on OVCAR-8 it was 0.341 µM (active); with UACC-257, 0.0583 µM (active); with HT-29, 8.87 µM (inactive); in the experiment on OVCAR-4 it was 9.23 µM (inactive); with SNB-75, 0.0443 µM (active). The 50% growth inhibitory concentration (GI50) is 0.038 µM (active) with SW-620; < 0.01 µM (active) with HOP-92; 0.0989 µM (active) with MOLT-4; 0.403 µM (active) in the experiment on HOP-62; 0.139 µM (active) in the experiment on SK-OV-3; 0.126 µM (active) in the experiment with NCI-H460. The GI50 in the experiment with RPMI-8226 is 0.121 µM (active); in the experiment with COLO 205, 11.1 µM (inactive); in the experiment with SK-MEL-28, < 0.01 µM (active); with HCT-116, 0.0783 µM (active).
Turning to `CC1=C(/C=C/C2=CC(=C\C(=O)O)/CC(C3=C(C)CCCC3(C)C)C2)C(C)(C)CCC1` (stereo unspecified), the GI50 was 10.1 µM (inactive) in the experiment on SF-295; 14.7 µM (inactive) in the experiment on OVCAR-8; 15.6 µM (inactive) in the experiment with UACC-257; 13.6 µM (inactive) in the experiment with HT-29; 13.7 µM (inactive) in the experiment on OVCAR-4; 14.6 µM (inactive) in the experiment on SNB-75. For the same compound, the GI50 in the experiment on SW-620 is 15 µM (inactive); in the experiment on HOP-92 it was 11.2 µM (inactive); with MOLT-4, 3.01 µM (inactive); in the experiment with HOP-62 it was 14 µM (inactive); in the experiment with SK-OV-3, 13.7 µM (inactive); in the experiment on NCI-H460, 13.9 µM (inactive). Moreover, the GI50 in the experiment with RPMI-8226 is 5.36 µM (inactive); in the experiment on COLO 205, 16.4 µM (inactive); with SK-MEL-28 it was 16 µM (inactive); with HCT-116, 15 µM (inactive).
In the case of `OCC(O)COCn1cc(Cn2ncc3c(O)ncnc32)nn1` (stereo unspecified), the GI50 in the experiment on SF-295, in the experiment with OVCAR-8, in the experiment on UACC-257, in the experiment on HT-29, in the experiment on OVCAR-4 and in the experiment with T47D was > 100 µM (inactive) throughout. Moreover, the GI50 in the experiment with SW-620, with DU-145, in the experiment on HOP-92, with MDA-MB-435, in the experiment on MOLT-4 and in the experiment with HOP-62 was > 100 µM (inactive) in each case. The GI50 in the experiment with SK-OV-3, in the experiment on RPMI-8226, in the experiment on COLO 205, in the experiment on SK-MEL-28 and in the experiment on HCT-116 was > 100 µM (inactive) each time.
For `COc1cc(C2c3cc4c(cc3OC(NN)C2C)OCO4)cc(OC)c1O` (stereo unspecified), the GI50 with SF-295 was 3.85 µM (inactive); in the experiment with OVCAR-8, 16.5 µM (inactive); with UACC-257 it was 18.5 µM (inactive); with HT-29, 6.22 µM (inactive); in the experiment with OVCAR-4, 26.8 µM (inactive); in the experiment on SNB-75, 4.28 µM (inactive). Further, the GI50 was 7.28 µM (inactive) in the experiment with T47D; 4.73 µM (inactive) in the experiment on SW-620; 15.3 µM (inactive) in the experiment with DU-145; 23.6 µM (inactive) in the experiment with HOP-92; 2.32 µM (inactive) in the experiment with MDA-MB-435; 3.95 µM (inactive) in the experiment on RPMI-8226. Also, the GI50 was 15.2 µM (inactive) in the experiment with COLO 205, 6.75 µM (inactive) in the experiment on SK-MEL-28 and 4.63 µM (inactive) in the experiment with HCT-116.
On to `COc1cc(C2C3=C(CCCC3=O)N(c3ccc(C)cc3)C3=C2C(=O)CCC3)c([N+](=O)[O-])cc1OC`, for which the GI50 in the experiment on HT-29 is 59.4 µM (inactive); in the experiment with OVCAR-4, 45.4 µM (inactive); in the experiment with SNB-75, 24.4 µM (inactive); in the experiment on Hs-578T, 75.9 µM (inactive); with SW-620 it was > 100 µM (inactive); in the experiment with HOP-92, 52 µM (inactive). The GI50 in the experiment on MOLT-4 was 24.2 µM (inactive); in the experiment on SK-OV-3, > 100 µM (inactive); in the experiment with NCI-H460 it was > 100 µM (inactive); in the experiment on RPMI-8226, 57.3 µM (inactive); in the experiment with SK-MEL-28 it was 87.3 µM (inactive).
On to `COc1ccc(/C=C/C(=O)CCN2CCN(CCC(=O)/C=C/c3ccc(OC)cc3)CC2)cc1`, for which the GI50 in the experiment on SF-295 was 8.26 µM (inactive); with OVCAR-8, 20.8 µM (inactive); in the experiment on UACC-257, 14.8 µM (inactive); in the experiment with HT-29, 10.4 µM (inactive); with OVCAR-4 it was 22.8 µM (inactive); in the experiment on SNB-75, 19.1 µM (inactive). In addition, the GI50 is 20 µM (inactive) in the experiment with Hs-578T; 4.1 µM (inactive) with SW-620; 26.2 µM (inactive) in the experiment on DU-145; 18.6 µM (inactive) in the experiment with HOP-92; 9.35 µM (inactive) with MDA-MB-435; 6.87 µM (inactive) with MOLT-4. In addition, the GI50 in the experiment with HOP-62 was 20.6 µM (inactive); in the experiment with SK-OV-3, 11.8 µM (inactive); in the experiment with NCI-H460 it was 11.1 µM (inactive); with COLO 205, 2.01 µM (inactive); with SK-MEL-28, 13.6 µM (inactive); with HCT-116, 3.29 µM (inactive).
Turning to `O=C1NC2(CCCC2)C2CCCCC12O` (stereo unspecified), the GI50 in the experiment with SF-295, in the experiment on OVCAR-8, in the experiment on UACC-257, in the experiment with HT-29, with OVCAR-4 and in the experiment on SNB-75 was > 100 µM (inactive) in each case. Besides, the GI50 with SW-620, in the experiment with HOP-92, in the experiment with MOLT-4, with HOP-62, with SK-OV-3 and in the experiment with NCI-H460 was > 100 µM (inactive) each time. Further, the GI50 in the experiment on RPMI-8226, in the experiment with COLO 205, in the experiment on SK-MEL-28 and in the experiment on HCT-116 was > 100 µM (inactive) throughout.
Regarding `COC(=O)c1c(O)ccc2c1c1c(n2Cc2ccccn2)C(=O)c2ccccc2C1`, the GI50 in the experiment with SF-295 is > 100 µM (inactive); with OVCAR-8 it was > 100 µM (inactive); with UACC-257, 82.8 µM (inactive); in the experiment on HT-29 it was 32.8 µM (inactive); with OVCAR-4, 19.4 µM (inactive); in the experiment on SNB-75 it was > 100 µM (inactive). The GI50 in the experiment on Hs-578T was > 100 µM (inactive); with SW-620, > 100 µM (inactive); in the experiment on DU-145, > 100 µM (inactive); in the experiment on MDA-MB-435 it was 86.5 µM (inactive); in the experiment with MOLT-4 it was 95.1 µM (inactive); with HOP-62 it was > 100 µM (inactive). Also, the GI50 with SK-OV-3 was 96.2 µM (inactive); with NCI-H460, 50.2 µM (inactive); in the experiment on RPMI-8226, 13 µM (inactive); in the experiment on COLO 205, 13.5 µM (inactive); in the experiment on SK-MEL-28, > 100 µM (inactive); with HCT-116, 50 µM (inactive).
As for `O=C(CCC1CCCCC1)NCc1ccc(C(=O)O)cc1`, the GI50 in the experiment with SF-295, with OVCAR-8, in the experiment on UACC-257, with HT-29, with OVCAR-4 and with SNB-75 was > 100 µM (inactive) in each case. In addition, the GI50 in the experiment with T47D, in the experiment on SW-620, in the experiment on DU-145, with HOP-92, in the experiment with MDA-MB-435 and in the experiment on MOLT-4 was > 100 µM (inactive) throughout. The GI50 in the experiment on HOP-62, with SK-OV-3, in the experiment on NCI-H460, in the experiment on RPMI-8226, in the experiment with COLO 205 and in the experiment on SK-MEL-28 was > 100 µM (inactive) in each case. For the same compound, the GI50 in the experiment on HCT-116 was > 100 µM (inactive).
For the compound `O=C1NC(=S)NC(=O)C1=Cc1ccc([N+](=O)[O-])o1`, the GI50 in the experiment with SF-295 was 78.3 µM (inactive); with OVCAR-8 it was 29.4 µM (inactive); in the experiment on UACC-257 it was 44.2 µM (inactive); with HT-29, 23.2 µM (inactive); with OVCAR-4 it was 17.3 µM (inactive); in the experiment on SNB-75 it was 16.2 µM (inactive). The GI50 in the experiment with SW-620 is 23 µM (inactive); in the experiment with HOP-92, 20.7 µM (inactive); in the experiment on MOLT-4 it was 19.7 µM (inactive); with HOP-62 it was > 100 µM (inactive); with SK-OV-3, > 100 µM (inactive); in the experiment on NCI-H460, > 100 µM (inactive). In addition, the GI50 with RPMI-8226 was 20.3 µM (inactive); in the experiment with COLO 205 it was 20.2 µM (inactive); in the experiment with SK-MEL-28, 25 µM (inactive); in the experiment with HCT-116, 15 µM (inactive).
On to `CC1(C)CC(N2CCN(C3CC(C)(C)NC(C)(C)C3)CC2)CC(C)(C)N1`, for which the GI50 with SF-295, with OVCAR-8, in the experiment on UACC-257, in the experiment on HT-29, in the experiment on OVCAR-4 and in the experiment on SNB-75 was > 100 µM (inactive) throughout. The GI50 in the experiment with SW-620, with HOP-92, in the experiment on MOLT-4, in the experiment with HOP-62, with SK-OV-3 and in the experiment with NCI-H460 was > 100 µM (inactive) each time. In addition, the GI50 with RPMI-8226, in the experiment with SK-MEL-28 and with HCT-116 was > 100 µM (inactive) each time.
`COc1c(O)cc2c(c1O)C1O[C@H](CO)C(O)[C@H](O)[C@H]1OC2=O` (stereo partly specified): the GI50 in the experiment on SF-295, with OVCAR-8, with UACC-257, in the experiment on HT-29, with OVCAR-4 and with SNB-75 was > 100 µM (inactive) throughout. In addition, the GI50 in the experiment with T47D, with SW-620, in the experiment with DU-145, in the experiment on HOP-92, in the experiment on MDA-MB-435 and in the experiment with MOLT-4 was > 100 µM (inactive) in each case. In addition, the GI50 in the experiment with HOP-62, in the experiment on SK-OV-3, in the experiment on NCI-H460, in the experiment with RPMI-8226, in the experiment with COLO 205 and in the experiment on SK-MEL-28 was > 100 µM (inactive) in each case. In addition, the GI50 in the experiment on HCT-116 was > 100 µM (inactive).
